Results published in patent US8940865B2, “Myocardial peptide, preparation method and uses thereof” (Dalian Zhen-Ao Pharmaceutical Co, Ltd., priority 2008, dated 2015).

Legend:
[1] = test system: ischemia/reperfusion damaged rat; assay: Therapeutic administration, ischemia/reperfusion (LAD ligation) rat model; assay type: in vivo, SD rat; conditions: therapeutic i.v. 5 minutes after ligation; for CK / LDH / MDA / SOD: rat serum
Protocol: (§1) Intraperitoneal injecting 6% Urethane with 20 ml/kg to anaesthetize the animal, fixing the animal on operating table in supine position; being connected with the electrocardiograph to detect the limb II lead electrocardiogram, tracheal intubating and connecting the animal with respirators, taking continuous positive end-expiratory pressure with tidal volume of 6 ml/200 g, frequency of 55/min and breathing ratio of 2:1. Carrying out thoracotomy on the gap between the forth and the fifth ribs of the left border of sternum, separating the ribs and removing the pericardium. Ligating at the left anterior descending coronary artery by using 6/0 silk suture by the sign of left auricle lower margin, and setting a piece of polyethylene pipe with diameter of 1 mm between the ligation silk suture and blood vessel. Ligating the silk suture to press the left anterior descending coronary artery by the polyethylene pipe and cause myocardial ischemia. Taking part of myocardium becoming grey and electrocardiogram S-T segment raising as the sign of that the left anterior descending coronary artery is ligated successfully. Taking out the polyethylene pipe carefully to cause the reperfusion. Verifying the success of reoxygenation by reactive hyperemia of ischemia area and the descending of the raised S-T segment by ½. Reoxygenation for 30 minutes, then sampling blood from abdominal aorta to prepare serum which is used to measure the biochemical index (measuring the content of CK, LDH, MDA, SPD according to the Reagent kits Instruction).
(§2) Rat's heart was taken and after being blooded, the residual blood in the ventricle was cleaned by normal saline to weight the weight of whole heart. Fat was removed, the heart was crosscut into 4˜5 pieces and was put into a tube, to be carried out NBT dye at 37° C. (dying the normal tissue rather than the ischemic tissue), taking photographs. The ischemic area of the myocardium was cut to take a weighing, and then the myocardial infarct size (MIS) was calculated by the ratio of weight of the ischemic area of the myocardium to whole heart weight, which was present by percentage.
The drug was intravenously injured on the tail 5 minutes after ligation of LAD, then reperfusion was carried out for 30 min 30 minutes after ligation of LAD. Heart was taken after sampling blood from abdominal aorta. The biochemical index and the myocardial infarction size were measure by using the above method.

[2] = test system: ischemia/reperfusion damaged rat; assay: Preventive administration, ischemia/reperfusion (LAD ligation) rat model; assay type: in vivo, SD rat; conditions: preventive i.v. 30 min before ligation; for MIS (myocardial infarct size): ischemic area weight/whole heart weight; for CK / LDH / MDA / SOD: rat serum
Protocol: 70 SD rats (250˜300 g per rat) were taken, wherein, 60 rats were divided into 6 groups evenly and randomly according to weight, every 10 of each group, the remains are kept for replacement of dead animals of each group.
Normal Control Group: carrying out sham operation, threading a silk suture through the left anterior descending coronary artery (LAD) without ligation;
Model Group: intravenous injecting saline solution of 5 ml/kg 30 minutes before ligation, and the preparation of hypoxia/reoxygenation model is the same as Normal Control Group;
Positive Control Group: intravenous injecting Verapamil of 1 ml/kg 30 min before ligation, preparation of the hypoxia/reoxygenation model is the same as Normal Control Group. […]
Preparation of the Model:
as §1, §2

Question: How did the CK ([1]; Dosage 0.2 mg/kg) turn out when “KGAWSNVLRGMGGAF [CMPC, Lys-Gly-Ala-Trp-Ser-Asn-Val-Leu-Arg-Gly-Met-Gly-Gly-Ala-Phe]” was run?
Answer: 2.026 ± 0.532 U/ml

Question: And the LDH ([1]; Dosage 0.2 mg/kg)?
Answer: 7763.83 ± 770.70 U/L

Question: And the MDA ([1]; Dosage 0.2 mg/kg)?
Answer: 4.878 ± 0.430 nmol/mL

Question: And the SOD ([1]; Dosage 0.2 mg/kg)?
Answer: 140.59 ± 20.28 U/ml

Question: And the CK ([1]; Dosage 0.6 mg/kg)?
Answer: 1.748 ± 0.573 U/ml

Question: What about the LDH ([1]; Dosage 0.6 mg/kg) of the same sequence?
Answer: 7034.59 ± 1167.17 U/L

Question: What about the MDA ([1]; Dosage 0.6 mg/kg) of the same sequence?
Answer: 4.862 ± 0.468 nmol/mL

Question: And the SOD ([1]; Dosage 0.6 mg/kg)?
Answer: 145.41 ± 10.56 U/ml

Question: What about the CK ([1]; Dosage 1.8 mg/kg) of the same sequence?
Answer: 1.707 ± 0.332 U/ml

Question: And the LDH ([1]; Dosage 1.8 mg/kg)?
Answer: 7233.69 ± 297.69 U/L

Question: What about the MDA ([1]; Dosage 1.8 mg/kg) of the same sequence?
Answer: 4.685 ± 0.714 nmol/mL

Question: What about the SOD ([1]; Dosage 1.8 mg/kg) of the same sequence?
Answer: 143.41 ± 12.14 U/ml

Question: What about the “MIS (myocardial infarct size)” value ([1]; Dosage 0.2 mg/kg) of the same sequence?
Answer: 3.95 ± 0.97 %

Question: What about the “MIS (myocardial infarct size)” value ([1]; Dosage 0.6 mg/kg) of the same sequence?
Answer: 4.20 ± 0.78 %

Question: What about the “MIS (myocardial infarct size)” value ([1]; Dosage 1.8 mg/kg) of the same sequence?
Answer: 3.68 ± 1.39 %

Question: What about the “MIS (myocardial infarct size)” value ([2]; Dosage 0.2 mg/kg) of the same sequence?
Answer: 4.67 ± 0.74 %

Question: What about the “MIS (myocardial infarct size)” value ([2]; Dosage 0.6 mg/kg) of the same sequence?
Answer: 4.17 ± 0.62 %

Question: And the “MIS (myocardial infarct size)” value ([2]; Dosage 1.8 mg/kg)?
Answer: 3.47 ± 1.08 %

Question: What about the CK ([2]; Dosage 0.2 mg/kg) of the same sequence?
Answer: 2.238 ± 0.274 U/ml

Question: What about the LDH ([2]; Dosage 0.2 mg/kg) of the same sequence?
Answer: 7555.34 ± 600.16 U/L

Question: What about the MDA ([2]; Dosage 0.2 mg/kg) of the same sequence?
Answer: 4.642 ± 0.978 nmol/mL

Question: What about the SOD ([2]; Dosage 0.2 mg/kg) of the same sequence?
Answer: 134.85 ± 12.55 U/ml

Question: What about the CK ([2]; Dosage 0.6 mg/kg) of the same sequence?
Answer: 2.172 ± 0.329 U/ml

Question: And the LDH ([2]; Dosage 0.6 mg/kg)?
Answer: 7531.58 ± 414.64 U/L

Question: And the MDA ([2]; Dosage 0.6 mg/kg)?
Answer: 4.847 ± 0.570 nmol/mL

Question: And the SOD ([2]; Dosage 0.6 mg/kg)?
Answer: 130.43 ± 10.55 U/ml

Question: And the CK ([2]; Dosage 1.8 mg/kg)?
Answer: 2.045 ± 0.358 U/ml

Question: And the LDH ([2]; Dosage 1.8 mg/kg)?
Answer: 7453.80 ± 366.11 U/L

Question: And the MDA ([2]; Dosage 1.8 mg/kg)?
Answer: 4.371 ± 0.47 nmol/mL

Question: And the SOD ([2]; Dosage 1.8 mg/kg)?
Answer: 135.67 ± 8.64 U/ml
